Data published in ChEMBL document CHEMBL3120164, “1,2,3,4-Tetrahydrobenzo[h][1,6]naphthyridines as a new family of potent peripheral-to-midgorge-site inhibitors of acetylcholinesterase: synthesis, pharmacological evaluation and mechanistic studies” (Eur J Med Chem, 2014).
Activity calls are given as the source filed them. The rule behind the calls is not given here.

Assays:
in vitro = details: PAMPA
Description: Permeability of the compound by BBB-PAMPA

[1] = molecular target: Amyloid-beta precursor protein (Homo sapiens) (UniProt P05067); test: Inhibition of amyloid beta (1 to 42) aggregation (unknown origin) at 10 uM relative to control
Acetylcholinesterase [2] = molecular target: T1, Acetylcholinesterase (Homo sapiens, UniProt P22303); test: Inhibition of human recombinant AChE using acetylthiocholine iodide as substrate preincubated for 20 mins followed by substrate addition by Ellman's method
Acetylcholinesterase [3] = molecular target: T1, Acetylcholinesterase; test: Inhibition of human recombinant AChE using acetylthiocholine iodide as substrate at 25 uM preincubated for 20 mins followed by substrate addition by Ellman's method relative to control
Acetylcholinesterase [4] = molecular target: T2, Acetylcholinesterase (Electrophorus electricus, UniProt O42275)
Description: Inhibition of electric eel AChE using acetylthiocholine iodide as substrate preincubated for 20 mins followed by substrate addition measured after 5 mins by Ellman's method

Cholinesterase [5] = molecular target: T3, Cholinesterase (Homo sapiens, UniProt P06276); test: Inhibition of human serum BChE using butyrylthiocholine iodide as substrate at 30 uM preincubated for 20 mins followed by substrate addition measured after 5 mins by Ellman's method relative to control
[6] = molecular target: Acetylcholinesterase (Electrophorus electricus) (UniProt O42275); test: Binding affinity to electric eel AChE peripheral anionic site assessed as concentration required for decreasing initial fluorescence intensity of AChE-propidium complex by spectrofluorometric analysis
Acetylcholinesterase [7] = molecular target: T2, Acetylcholinesterase; test: (§1) Displacement of propidium from electric eel AChE peripheral anionic site assessed as decrease in fluorescence intensity by spectrofluorometric analysis
[8] = molecular target: Acetylcholinesterase (Electrophorus electricus) (UniProt O42275); test: as §1
Cholinesterase [9] = molecular target: T3, Cholinesterase; test: Inhibition of human serum BChE using butyrylthiocholine iodide as substrate preincubated for 20 mins followed by substrate addition measured after 5 mins by Ellman's method
[10] = molecular target: Acetylcholinesterase (Electrophorus electricus) (UniProt O42275); test: Inhibition of electric eel AChE using acetylthiocholine iodide as substrate at 30 uM preincubated for 20 mins followed by substrate addition measured after 5 mins by Ellman's method relative to control
Acetylcholinesterase [11] = molecular target: T1, Acetylcholinesterase; test: Mixed-type inhibition of human recombinant AChE using acetylthiocholine iodide as substrate assessed as enzyme-substrate-inhibitor complex by Lineweaver-Burk plot analysis
Acetylcholinesterase [12] = molecular target: T1, Acetylcholinesterase; test: Mixed-type inhibition of human recombinant AChE using acetylthiocholine iodide as substrate by Cornish-Bowden plot analysis
[13] = molecular target: Acetylcholinesterase (Electrophorus electricus) (UniProt O42275); test: Displacement of propidium from electric eel AChE peripheral anionic site assessed as decrease in fluorescence intensity at 1/1 propidium to compound ratio by spectrofluorometric analysis relative to control; details: concentration not given here
Acetylcholinesterase [14] = molecular target: T1, Acetylcholinesterase; test: Mixed-type inhibition of human recombinant AChE using acetylthiocholine iodide as substrate assessed as enzyme-inhibitor complex by Lineweaver-Burk plot analysis
Acetylcholinesterase [15] = molecular target: T1, Acetylcholinesterase; test: Ratio of propidium IC50 to compound IC50 for human recombinant AChE
Acetylcholinesterase [16] = molecular target: T1, Acetylcholinesterase; test: Ratio of tacrine IC50 to compound IC50 for human recombinant AChE

Sequence of Amyloid-beta precursor protein (Homo sapiens) (P05067 whole entry): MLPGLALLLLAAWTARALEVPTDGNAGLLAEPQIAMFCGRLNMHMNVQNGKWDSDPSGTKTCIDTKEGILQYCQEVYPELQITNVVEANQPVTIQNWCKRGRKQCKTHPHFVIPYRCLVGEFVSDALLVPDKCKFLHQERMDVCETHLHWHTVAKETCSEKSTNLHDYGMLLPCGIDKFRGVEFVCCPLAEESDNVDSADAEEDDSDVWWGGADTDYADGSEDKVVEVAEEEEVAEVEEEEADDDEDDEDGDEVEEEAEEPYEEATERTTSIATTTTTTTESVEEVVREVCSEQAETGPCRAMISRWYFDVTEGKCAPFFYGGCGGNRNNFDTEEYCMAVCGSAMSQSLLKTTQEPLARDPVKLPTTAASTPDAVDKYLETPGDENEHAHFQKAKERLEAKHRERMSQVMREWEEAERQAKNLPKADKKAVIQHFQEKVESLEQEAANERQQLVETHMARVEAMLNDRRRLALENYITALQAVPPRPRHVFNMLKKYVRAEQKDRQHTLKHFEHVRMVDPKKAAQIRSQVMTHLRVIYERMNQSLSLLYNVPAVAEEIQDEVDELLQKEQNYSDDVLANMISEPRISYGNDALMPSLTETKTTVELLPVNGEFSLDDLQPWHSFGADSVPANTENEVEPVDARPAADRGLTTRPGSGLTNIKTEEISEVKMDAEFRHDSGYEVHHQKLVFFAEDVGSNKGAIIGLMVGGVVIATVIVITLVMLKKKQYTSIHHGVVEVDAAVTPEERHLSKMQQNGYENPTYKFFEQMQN
T3 sequence (P06276 whole entry): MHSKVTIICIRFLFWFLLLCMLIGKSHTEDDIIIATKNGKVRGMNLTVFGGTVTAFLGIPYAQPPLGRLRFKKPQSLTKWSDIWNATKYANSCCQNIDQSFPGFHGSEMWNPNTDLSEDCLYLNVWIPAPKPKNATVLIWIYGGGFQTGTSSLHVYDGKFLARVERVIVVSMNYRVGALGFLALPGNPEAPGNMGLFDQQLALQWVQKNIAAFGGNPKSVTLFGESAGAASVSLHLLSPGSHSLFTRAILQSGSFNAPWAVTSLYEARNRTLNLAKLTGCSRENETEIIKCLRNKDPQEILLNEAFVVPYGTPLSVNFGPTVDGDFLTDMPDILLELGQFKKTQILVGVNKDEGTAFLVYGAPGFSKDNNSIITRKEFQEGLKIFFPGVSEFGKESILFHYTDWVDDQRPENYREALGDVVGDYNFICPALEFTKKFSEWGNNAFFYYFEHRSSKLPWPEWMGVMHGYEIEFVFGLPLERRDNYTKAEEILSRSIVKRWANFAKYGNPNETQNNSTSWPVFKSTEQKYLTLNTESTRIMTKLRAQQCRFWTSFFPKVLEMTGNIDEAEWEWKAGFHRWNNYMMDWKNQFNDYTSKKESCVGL
T1 sequence (P22303 whole entry): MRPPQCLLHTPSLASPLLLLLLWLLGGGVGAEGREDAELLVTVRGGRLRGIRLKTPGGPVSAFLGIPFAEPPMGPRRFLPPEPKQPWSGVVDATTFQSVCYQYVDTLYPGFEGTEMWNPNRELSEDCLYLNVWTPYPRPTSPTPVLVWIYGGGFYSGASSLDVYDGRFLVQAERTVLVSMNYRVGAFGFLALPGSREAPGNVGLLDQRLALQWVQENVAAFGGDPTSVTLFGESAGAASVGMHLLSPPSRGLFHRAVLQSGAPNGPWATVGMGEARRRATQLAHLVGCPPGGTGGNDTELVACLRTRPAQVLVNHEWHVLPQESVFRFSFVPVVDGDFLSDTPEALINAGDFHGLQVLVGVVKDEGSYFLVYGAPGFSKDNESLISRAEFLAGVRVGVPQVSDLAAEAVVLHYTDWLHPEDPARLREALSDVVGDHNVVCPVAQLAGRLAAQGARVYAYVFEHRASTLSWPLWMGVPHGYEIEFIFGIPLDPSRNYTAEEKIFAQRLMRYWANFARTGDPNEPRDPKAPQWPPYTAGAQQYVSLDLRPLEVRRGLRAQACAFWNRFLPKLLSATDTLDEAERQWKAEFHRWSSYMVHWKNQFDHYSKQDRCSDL
Sequence of Acetylcholinesterase (Electrophorus electricus) (O42275 24-633 limits assumed): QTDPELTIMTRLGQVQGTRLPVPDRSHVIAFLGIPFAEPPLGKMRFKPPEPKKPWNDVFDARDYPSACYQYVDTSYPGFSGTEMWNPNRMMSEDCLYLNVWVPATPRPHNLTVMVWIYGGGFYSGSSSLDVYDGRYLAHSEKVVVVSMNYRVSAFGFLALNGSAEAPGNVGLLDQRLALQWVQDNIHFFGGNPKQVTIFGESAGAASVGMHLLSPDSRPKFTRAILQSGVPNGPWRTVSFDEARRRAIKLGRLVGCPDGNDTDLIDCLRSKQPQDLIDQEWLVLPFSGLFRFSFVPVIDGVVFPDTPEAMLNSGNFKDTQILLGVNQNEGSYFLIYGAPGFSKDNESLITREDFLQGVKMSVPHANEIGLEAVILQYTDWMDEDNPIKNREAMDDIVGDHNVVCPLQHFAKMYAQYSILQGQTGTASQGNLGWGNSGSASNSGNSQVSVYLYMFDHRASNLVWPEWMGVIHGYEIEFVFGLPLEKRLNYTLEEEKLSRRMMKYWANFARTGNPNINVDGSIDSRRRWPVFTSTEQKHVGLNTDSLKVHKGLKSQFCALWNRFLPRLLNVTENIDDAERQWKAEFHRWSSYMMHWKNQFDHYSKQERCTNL
T2 sequence (O42275 whole entry): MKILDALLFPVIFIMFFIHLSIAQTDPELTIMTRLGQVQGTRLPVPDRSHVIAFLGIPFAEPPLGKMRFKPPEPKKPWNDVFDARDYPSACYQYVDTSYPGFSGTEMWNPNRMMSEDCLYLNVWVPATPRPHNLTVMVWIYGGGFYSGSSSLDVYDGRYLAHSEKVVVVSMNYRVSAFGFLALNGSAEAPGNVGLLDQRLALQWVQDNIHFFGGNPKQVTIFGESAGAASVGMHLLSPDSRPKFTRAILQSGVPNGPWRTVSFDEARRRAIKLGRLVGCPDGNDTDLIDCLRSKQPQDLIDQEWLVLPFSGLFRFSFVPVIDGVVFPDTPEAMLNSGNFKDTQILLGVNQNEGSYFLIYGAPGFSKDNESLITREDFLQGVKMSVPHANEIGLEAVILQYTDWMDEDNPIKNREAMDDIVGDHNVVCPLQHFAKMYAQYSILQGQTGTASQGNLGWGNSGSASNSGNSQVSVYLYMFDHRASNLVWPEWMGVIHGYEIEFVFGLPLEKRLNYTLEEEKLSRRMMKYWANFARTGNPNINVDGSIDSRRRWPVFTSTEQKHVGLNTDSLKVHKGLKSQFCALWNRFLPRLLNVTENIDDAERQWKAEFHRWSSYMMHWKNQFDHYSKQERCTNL

| SMILES | Papp (in vitro) | inhibition [1] | IC50 (Acetylcholinesterase [2]) | inhibition (Acetylcholinesterase [3]) | IC50 (Acetylcholinesterase [4]) | inhibition (Cholinesterase [5]) | other results |
| --- | --- | --- | --- | --- | --- | --- | --- |
| CCOC(=O)c1ccc2nc(-c3ccc(Cl)cc3)c3c(c2c1)N(Cc1ccccc1)CCC3 | 8.1 ×10⁻⁶ cm/s | < 16% | > 25000 nM | 10% | 6330 nM | 8.68% |  |
| CCOC(=O)c1ccc2nc(-c3cccnc3)c3c(c2c1)N(Cc1ccccc1)CCC3 |  | < 16% | 1060 nM |  | 1970 nM |  |  |
| CCOC(=O)c1ccc2nc(-c3ccc(C(=O)OC)cc3)c3c(c2c1)N(Cc1ccccc1)C(=O)CC3 | 16.8 ×10⁻⁶ cm/s | < 16% | > 25000 nM | 13.8% | 13600 nM | 5.54% |  |
| CN1C(C(=O)Nc2ccccn2)=C(O)c2ccccc2S1(=O)=O [PIROXICAM] | 1.71 ×10⁻⁶ cm/s |  |  |  |  |  |  |
| CCNCc1ccc2nc(-c3ccc(Cl)cc3)c3c(c2c1)N(Cc1ccccc1)CCC3 |  | < 16% | 942 nM |  | 147 nM |  | Activity [6]: 33 µM; Kd (Acetylcholinesterase [7]): 3200 nM; inhibition [8]: Dose-dependent effect |
| CCNCc1ccc2nc(-c3cccnc3)c3c(c2c1)NCCC3 | 2.4 ×10⁻⁶ cm/s | < 16% | 15800 nM |  | 2150 nM |  | IC50 (Cholinesterase [9]): 2590 nM |
| CCn1cc(C(=O)O)c(=O)c2cc(F)c(N3CCNC(C)C3)c(F)c21 (stereo not drawn) [LOMEFLOXACIN] | 0.75 ×10⁻⁶ cm/s |  |  |  |  |  |  |
| CCOC(=O)c1ccc2nc(-c3ccc(C(=O)OC)cc3)c3c(c2c1)N(Cc1ccccc1)CCC3 | 9.5 ×10⁻⁶ cm/s | < 16% | > 25000 nM | 15.7% | 6620 nM | 6.61% |  |
| CCOC(=O)c1ccc2nc(-c3ccc(Cl)cc3)c3c(c2c1)NCCC3 | 9.7 ×10⁻⁶ cm/s | < 16% | > 25000 nM | 17.8% | 281 nM | 20.3% |  |
| CCOC(=O)c1ccc2nc(-c3ccc(Cl)cc3)c3c(c2c1)N(Cc1ccccc1)C(=O)CC3 | 13.3 ×10⁻⁶ cm/s | < 16% | 4150 nM |  | 5210 nM | 8.41% |  |
| CCOC(=O)c1ccc2nc(-c3cccnc3)c3c(c2c1)N(Cc1ccccc1)C(=O)CC3 | 12.2 ×10⁻⁶ cm/s | < 16% | 13000 nM |  | > 30000 nM | 4.42% | inhibition [10]: 43.7% |
| CCNCc1ccc2nc(-c3ccc(Cl)cc3)c3c(c2c1)NCCC3 | 5.6 ×10⁻⁶ cm/s | < 16% | 556 nM |  | 532 nM |  | IC50 (Cholinesterase [9]): 1370 nM; Activity [6]: 23 µM; Kd (Acetylcholinesterase [7]): 2180 nM; inhibition [8]: Dose-dependent effect |
| CCOC(=O)c1ccc2nc(-c3cccnc3)c3c(c2c1)NCCC3 | 14.6 ×10⁻⁶ cm/s | < 16% | 22800 nM |  | 148 nM | 27.5% |  |
| CCNC(=O)c1ccc2nc(-c3ccc(Cl)cc3)c3c(c2c1)N(Cc1ccccc1)CCC3 | 7.7 ×10⁻⁶ cm/s | < 16% | 801 nM |  | 5480 nM | 25.3% | Ki (Acetylcholinesterase [11]): 2340 nM; inhibition (Acetylcholinesterase [12]): Active; inhibition [13]: 5%; Ki (Acetylcholinesterase [14]): 785 nM |
| CCNC(=O)c1ccc2nc(-c3ccc(Cl)cc3)c3c(c2c1)NCCC3 | 22.9 ×10⁻⁶ cm/s | < 16% | 65 nM |  | 46 nM |  | Ki (Acetylcholinesterase [11]): 73 nM; IC50 (Cholinesterase [9]): 920 nM; Activity [6]: 13 µM; Ratio IC50 (Acetylcholinesterase [15]): 500; Ratio IC50 (Acetylcholinesterase [16]): 6; inhibition (Acetylcholinesterase [12]): Active; Ki (Acetylcholinesterase [14]): 65 nM; Kd (Acetylcholinesterase [7]): 1760 nM; inhibition [8]: Dose-dependent effect |
| CCOC(=O)c1ccc2nc(-c3ccc(Cl)cc3)c3c(c2c1)N(Cc1ccc(OC)cc1)CCC3 | 26 ×10⁻⁶ cm/s | < 16% | > 25000 nM | 10.2% | > 30000 nM | 12.4% | inhibition [10]: 33.7% |
